We go through three compounds from ChEMBL document CHEMBL5649166, “RIP3 induces apoptosis independent of pronecrotic kinase activity” (Mol Cell, 2014).

Assay [1] concerns the target Serine/threonine-protein kinase Nek4 (Homo sapiens) (UniProt P51957). Kind of assay: Inhibition of human NEK4 using myelin basic protein as substrate at 1 uM in presence of 32P-ATP by Hotspot assay relative to control; values are per cent of control.
Assay [2] addresses T1, TGF-beta receptor type-1 (Homo sapiens) (UniProt P36897).
T1 sequence (whole entry): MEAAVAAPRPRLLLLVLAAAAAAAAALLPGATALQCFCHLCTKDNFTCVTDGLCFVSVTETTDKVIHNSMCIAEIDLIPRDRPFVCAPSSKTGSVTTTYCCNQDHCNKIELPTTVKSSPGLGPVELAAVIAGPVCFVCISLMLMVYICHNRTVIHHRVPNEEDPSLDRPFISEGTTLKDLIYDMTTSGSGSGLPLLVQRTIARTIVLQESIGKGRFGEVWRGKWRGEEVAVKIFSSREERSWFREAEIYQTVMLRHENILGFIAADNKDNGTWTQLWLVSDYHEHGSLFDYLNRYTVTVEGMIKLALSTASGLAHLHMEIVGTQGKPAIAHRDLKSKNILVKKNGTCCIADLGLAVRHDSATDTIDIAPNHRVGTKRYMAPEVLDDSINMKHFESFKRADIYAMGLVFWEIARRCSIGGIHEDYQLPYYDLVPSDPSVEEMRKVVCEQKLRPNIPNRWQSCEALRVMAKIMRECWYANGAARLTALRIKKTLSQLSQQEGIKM
Kind of assay: Inhibition of human ALK5/TGFBR1 using casein as substrate at 1 uM in presence of 32P-ATP by Hotspot assay relative to control; values are per cent of control.

For assay [3], the target named is Leucine-rich repeat serine/threonine-protein kinase 2 (Homo sapiens) (UniProt Q5S007). Briefly: Inhibition of human LRRK2 using RLGRDKYKTLRQIRQ as substrate at 1 uM in presence of 32P-ATP by Hotspot assay relative to control; values are per cent of control.
Assay [4] has as its target SRSF protein kinase 1 (Homo sapiens) (UniProt Q96SB4). Kind of assay: Residual activity of human SRPK1 using GRSRSRSRSR as substrate at 1 uM in presence of 32P-ATP by Hotspot assay relative to control.
Assay [5] addresses Tyrosine-protein kinase JAK1 (Homo sapiens) (UniProt P23458). Kind of assay: Inhibition of human JAK1 using poly[Glu:Tyr] (4:1) as substrate at 1 uM in presence of 32P-ATP by Hotspot assay relative to control; values are per cent of control.
The target of assay [6] is T2, Testis-specific serine/threonine-protein kinase 1 (Homo sapiens) (UniProt Q9BXA7).
T2 sequence (whole entry): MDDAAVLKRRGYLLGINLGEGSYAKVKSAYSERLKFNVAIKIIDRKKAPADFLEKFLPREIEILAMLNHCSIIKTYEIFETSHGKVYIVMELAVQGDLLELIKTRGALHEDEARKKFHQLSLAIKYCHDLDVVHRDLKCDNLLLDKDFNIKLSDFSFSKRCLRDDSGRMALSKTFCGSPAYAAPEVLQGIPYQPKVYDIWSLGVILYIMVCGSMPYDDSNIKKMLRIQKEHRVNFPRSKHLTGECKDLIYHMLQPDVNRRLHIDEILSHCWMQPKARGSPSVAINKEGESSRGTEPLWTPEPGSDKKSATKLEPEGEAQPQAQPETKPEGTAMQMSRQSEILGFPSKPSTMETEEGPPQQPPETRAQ
Kind of assay: Residual activity of human STK22D/TSSK1 using KKKVSRSGLYRSPSMPENLNRPR as substrate at 1 uM in presence of 32P-ATP by Hotspot assay relative to control.

Assay [7] deals with T3, Mitogen-activated protein kinase kinase kinase 5 (Homo sapiens) (UniProt Q99683).
T3 sequence (whole entry): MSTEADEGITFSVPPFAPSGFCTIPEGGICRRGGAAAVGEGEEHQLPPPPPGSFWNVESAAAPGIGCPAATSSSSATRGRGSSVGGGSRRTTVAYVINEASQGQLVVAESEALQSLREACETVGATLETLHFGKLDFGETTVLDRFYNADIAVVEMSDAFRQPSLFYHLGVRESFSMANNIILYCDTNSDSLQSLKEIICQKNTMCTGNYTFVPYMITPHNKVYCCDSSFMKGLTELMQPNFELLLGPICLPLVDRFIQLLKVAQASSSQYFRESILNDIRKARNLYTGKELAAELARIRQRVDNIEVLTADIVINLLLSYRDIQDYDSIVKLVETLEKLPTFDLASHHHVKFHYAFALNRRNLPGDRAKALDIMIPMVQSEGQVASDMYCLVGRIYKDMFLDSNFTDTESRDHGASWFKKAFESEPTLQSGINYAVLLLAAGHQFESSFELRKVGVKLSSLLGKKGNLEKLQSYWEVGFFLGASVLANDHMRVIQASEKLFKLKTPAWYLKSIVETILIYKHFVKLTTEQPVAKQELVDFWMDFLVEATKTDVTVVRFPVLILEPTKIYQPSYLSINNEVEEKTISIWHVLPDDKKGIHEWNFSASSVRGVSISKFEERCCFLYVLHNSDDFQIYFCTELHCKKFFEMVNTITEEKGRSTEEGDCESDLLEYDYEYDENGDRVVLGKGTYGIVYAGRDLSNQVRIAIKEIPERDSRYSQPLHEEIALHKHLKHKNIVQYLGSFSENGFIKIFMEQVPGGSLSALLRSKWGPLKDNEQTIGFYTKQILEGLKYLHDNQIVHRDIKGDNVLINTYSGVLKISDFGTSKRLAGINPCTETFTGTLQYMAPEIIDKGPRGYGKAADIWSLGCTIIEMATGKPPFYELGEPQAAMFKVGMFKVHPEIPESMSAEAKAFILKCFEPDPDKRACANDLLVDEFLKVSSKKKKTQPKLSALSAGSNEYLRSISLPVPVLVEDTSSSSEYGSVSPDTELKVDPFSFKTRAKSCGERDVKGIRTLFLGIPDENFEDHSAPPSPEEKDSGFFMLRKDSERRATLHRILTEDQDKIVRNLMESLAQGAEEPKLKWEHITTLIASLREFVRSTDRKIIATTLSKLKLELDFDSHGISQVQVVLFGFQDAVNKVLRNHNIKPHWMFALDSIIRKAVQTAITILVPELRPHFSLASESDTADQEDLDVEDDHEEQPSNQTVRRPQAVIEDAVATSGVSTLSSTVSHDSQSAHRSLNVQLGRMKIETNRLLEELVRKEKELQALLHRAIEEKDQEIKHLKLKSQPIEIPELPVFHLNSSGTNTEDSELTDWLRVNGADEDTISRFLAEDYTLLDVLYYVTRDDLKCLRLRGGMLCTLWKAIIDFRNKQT
Kind of assay: Inhibition of human ASK1/MAP3K5 using myelin basic protein as substrate at 1 uM in presence of 32P-ATP by Hotspot assay relative to control; values are per cent of control.

Leucine-rich repeat serine/threonine-protein kinase 2 (Homo sapiens), sequence (Q5S007 whole entry): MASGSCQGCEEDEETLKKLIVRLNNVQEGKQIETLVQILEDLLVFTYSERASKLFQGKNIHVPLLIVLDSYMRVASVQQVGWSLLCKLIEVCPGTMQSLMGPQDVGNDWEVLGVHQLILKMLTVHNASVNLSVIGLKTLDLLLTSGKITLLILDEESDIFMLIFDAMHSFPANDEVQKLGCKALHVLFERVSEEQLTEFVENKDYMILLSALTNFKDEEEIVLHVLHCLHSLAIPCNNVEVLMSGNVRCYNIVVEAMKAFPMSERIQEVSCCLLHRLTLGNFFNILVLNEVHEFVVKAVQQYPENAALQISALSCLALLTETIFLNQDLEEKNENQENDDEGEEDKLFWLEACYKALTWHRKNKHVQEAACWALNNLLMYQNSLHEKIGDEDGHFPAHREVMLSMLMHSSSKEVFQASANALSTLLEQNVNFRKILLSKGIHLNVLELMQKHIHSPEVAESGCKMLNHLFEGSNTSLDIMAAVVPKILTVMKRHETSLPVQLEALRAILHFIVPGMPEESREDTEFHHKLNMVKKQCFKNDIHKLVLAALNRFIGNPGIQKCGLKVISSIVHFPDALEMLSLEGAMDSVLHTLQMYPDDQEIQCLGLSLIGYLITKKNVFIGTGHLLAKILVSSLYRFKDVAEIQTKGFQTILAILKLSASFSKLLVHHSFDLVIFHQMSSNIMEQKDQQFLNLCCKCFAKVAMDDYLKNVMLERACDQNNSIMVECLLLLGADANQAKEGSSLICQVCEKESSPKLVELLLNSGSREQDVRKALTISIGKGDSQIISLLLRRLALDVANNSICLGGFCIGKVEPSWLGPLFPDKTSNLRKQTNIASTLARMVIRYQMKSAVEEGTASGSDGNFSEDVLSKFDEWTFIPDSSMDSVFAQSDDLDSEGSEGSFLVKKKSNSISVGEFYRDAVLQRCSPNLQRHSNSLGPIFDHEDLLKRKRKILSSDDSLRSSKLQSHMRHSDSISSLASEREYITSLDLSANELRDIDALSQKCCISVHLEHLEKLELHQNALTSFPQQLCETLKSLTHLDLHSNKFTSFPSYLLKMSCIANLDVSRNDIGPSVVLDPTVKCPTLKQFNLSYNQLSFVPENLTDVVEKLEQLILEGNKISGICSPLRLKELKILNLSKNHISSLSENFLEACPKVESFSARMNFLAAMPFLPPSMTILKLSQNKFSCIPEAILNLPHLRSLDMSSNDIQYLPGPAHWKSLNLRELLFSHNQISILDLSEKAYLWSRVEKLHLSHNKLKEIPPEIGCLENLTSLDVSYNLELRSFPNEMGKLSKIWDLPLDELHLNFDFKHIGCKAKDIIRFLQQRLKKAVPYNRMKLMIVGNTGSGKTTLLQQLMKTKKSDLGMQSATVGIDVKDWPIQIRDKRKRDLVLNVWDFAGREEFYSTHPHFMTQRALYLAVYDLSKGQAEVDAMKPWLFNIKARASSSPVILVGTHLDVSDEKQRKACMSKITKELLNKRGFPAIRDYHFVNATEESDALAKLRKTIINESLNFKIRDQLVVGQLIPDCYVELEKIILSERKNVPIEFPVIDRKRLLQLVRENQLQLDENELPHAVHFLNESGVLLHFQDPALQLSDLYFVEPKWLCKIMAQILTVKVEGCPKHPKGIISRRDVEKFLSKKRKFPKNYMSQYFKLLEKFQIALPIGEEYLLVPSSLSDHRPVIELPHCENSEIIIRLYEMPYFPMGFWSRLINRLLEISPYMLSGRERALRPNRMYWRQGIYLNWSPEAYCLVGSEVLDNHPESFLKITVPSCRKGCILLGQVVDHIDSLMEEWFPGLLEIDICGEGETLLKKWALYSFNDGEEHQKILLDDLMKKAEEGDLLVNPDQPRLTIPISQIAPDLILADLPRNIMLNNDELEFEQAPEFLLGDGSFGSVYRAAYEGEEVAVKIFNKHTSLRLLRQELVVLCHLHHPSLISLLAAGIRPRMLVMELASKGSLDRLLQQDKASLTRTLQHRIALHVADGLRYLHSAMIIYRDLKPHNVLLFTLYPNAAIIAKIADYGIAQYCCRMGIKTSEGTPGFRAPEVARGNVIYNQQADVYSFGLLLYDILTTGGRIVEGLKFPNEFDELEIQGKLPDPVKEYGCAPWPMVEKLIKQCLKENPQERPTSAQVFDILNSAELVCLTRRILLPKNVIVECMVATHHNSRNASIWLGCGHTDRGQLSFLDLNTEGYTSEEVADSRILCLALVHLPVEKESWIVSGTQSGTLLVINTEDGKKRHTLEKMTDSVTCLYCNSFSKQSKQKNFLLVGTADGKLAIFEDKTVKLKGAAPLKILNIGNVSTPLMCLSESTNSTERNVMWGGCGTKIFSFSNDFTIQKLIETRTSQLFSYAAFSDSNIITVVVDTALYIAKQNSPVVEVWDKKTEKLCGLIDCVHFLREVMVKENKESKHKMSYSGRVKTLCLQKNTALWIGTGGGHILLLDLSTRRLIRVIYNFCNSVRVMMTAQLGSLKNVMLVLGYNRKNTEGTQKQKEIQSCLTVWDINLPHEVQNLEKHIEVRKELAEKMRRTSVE
SRSF protein kinase 1 (Homo sapiens), sequence (Q96SB4 whole entry): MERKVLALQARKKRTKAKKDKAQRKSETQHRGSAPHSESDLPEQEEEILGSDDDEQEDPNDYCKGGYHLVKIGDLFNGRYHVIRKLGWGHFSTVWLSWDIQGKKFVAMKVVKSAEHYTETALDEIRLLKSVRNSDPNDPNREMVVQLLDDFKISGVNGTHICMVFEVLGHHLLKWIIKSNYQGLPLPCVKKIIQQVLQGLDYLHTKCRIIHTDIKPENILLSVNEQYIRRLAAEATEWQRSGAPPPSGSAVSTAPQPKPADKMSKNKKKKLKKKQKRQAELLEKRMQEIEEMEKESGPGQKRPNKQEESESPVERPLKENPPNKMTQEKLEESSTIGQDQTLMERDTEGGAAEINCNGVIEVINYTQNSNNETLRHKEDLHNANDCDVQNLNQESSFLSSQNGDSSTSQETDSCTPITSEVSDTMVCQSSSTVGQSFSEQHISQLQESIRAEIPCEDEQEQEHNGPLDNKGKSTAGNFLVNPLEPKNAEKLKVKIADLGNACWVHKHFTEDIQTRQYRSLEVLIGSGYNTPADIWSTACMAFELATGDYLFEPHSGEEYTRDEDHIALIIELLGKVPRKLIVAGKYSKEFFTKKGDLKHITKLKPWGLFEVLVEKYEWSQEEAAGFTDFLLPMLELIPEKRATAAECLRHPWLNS
Tyrosine-protein kinase JAK1 (Homo sapiens), sequence (P23458 whole entry): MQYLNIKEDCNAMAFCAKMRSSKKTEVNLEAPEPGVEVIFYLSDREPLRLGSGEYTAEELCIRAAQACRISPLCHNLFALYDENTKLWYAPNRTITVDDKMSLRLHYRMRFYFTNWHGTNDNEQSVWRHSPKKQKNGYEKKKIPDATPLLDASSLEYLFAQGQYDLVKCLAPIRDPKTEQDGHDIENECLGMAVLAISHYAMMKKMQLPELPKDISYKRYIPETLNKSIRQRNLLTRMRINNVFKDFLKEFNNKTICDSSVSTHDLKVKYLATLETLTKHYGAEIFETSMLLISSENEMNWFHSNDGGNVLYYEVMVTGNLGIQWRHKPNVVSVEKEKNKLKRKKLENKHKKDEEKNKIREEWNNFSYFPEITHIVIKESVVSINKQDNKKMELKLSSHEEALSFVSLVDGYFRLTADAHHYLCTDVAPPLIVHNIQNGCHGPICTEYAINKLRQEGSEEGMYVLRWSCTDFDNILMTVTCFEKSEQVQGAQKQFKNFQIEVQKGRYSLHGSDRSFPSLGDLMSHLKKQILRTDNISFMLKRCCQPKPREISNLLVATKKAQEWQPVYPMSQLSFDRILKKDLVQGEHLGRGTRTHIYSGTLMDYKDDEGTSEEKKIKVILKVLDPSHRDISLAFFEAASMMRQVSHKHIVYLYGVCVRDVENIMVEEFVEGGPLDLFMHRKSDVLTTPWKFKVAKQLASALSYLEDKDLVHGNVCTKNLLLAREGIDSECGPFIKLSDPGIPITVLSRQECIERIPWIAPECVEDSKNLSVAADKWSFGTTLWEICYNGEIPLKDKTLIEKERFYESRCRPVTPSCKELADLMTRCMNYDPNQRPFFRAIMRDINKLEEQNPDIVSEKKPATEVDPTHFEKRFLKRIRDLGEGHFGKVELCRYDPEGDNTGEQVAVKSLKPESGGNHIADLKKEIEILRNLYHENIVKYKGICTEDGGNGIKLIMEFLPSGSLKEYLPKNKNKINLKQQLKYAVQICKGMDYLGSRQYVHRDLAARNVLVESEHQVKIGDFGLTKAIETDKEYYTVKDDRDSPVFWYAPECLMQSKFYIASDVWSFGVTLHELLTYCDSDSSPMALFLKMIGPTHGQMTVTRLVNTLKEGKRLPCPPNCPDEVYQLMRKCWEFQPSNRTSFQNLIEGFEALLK

Take `CNC(=O)c1ccc2c(c1)ncn2-c1ccc(CC(=O)OC(C)(C)C)cc1`: the residual activity in assay [1] is 96.3%; in assay [2], 94.9%; in assay [3] it was 94.5%; in assay [4] it was 112%; in assay [5] it was 98.2%; in assay [6], 89.2%. Besides, the residual activity in assay [7] came out at 96.7%.
As to `Cc1cc(-c2cnc(N)c3c(-c4ccc5scnc5c4)csc23)n(C)n1`, the residual activity in assay [1] was 97.9%; in assay [2], 97.8%; in assay [3] it was 88.5%; in assay [4], 95.3%; in assay [5], 88.3%; in assay [6], 101%. In addition, in assay [7], the residual activity is 102%.
Take `CC(C)S(=O)(=O)c1ccc2nccc(Nc3ccc4scnc4c3)c2c1`: the residual activity is 95.6% in assay [1]; 101% in assay [2]; 90.5% in assay [3]; 104% in assay [4]; 94.9% in assay [5]; 98.6% in assay [6]. Further, the residual activity in assay [7] is 97.6%.
